For data set [1] the following is noted: PAMPA, triplicate. (In PAMPA a lipid-coated filter parts donor from acceptor wells.)
The target of a further data set is T1, hMAO B (Homo sapiens, UniProt P27338).
T1 sequence (P27338 1-520): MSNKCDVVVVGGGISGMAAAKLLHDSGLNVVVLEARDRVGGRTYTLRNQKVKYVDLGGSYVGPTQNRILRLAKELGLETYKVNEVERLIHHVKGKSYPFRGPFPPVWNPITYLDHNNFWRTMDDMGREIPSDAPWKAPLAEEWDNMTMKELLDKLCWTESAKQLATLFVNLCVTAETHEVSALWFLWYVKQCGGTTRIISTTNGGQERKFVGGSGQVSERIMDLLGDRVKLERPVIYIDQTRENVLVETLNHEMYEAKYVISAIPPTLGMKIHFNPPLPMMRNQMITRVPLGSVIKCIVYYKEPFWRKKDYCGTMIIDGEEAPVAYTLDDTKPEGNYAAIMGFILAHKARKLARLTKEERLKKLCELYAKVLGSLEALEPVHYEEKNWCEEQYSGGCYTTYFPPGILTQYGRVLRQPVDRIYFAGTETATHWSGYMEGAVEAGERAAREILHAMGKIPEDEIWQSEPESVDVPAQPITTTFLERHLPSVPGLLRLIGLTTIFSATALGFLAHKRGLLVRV
Description: Fluorometric MAO assay, hMAO B inhibition. In kind it is biochemical. The conditions noted are these: mean ± SEM of two independent experiments, read-out: hMAO B %Inh. at 1 µM.

Data set [2] addresses BuChE from equine serum (eqBuChE) (Equus caballus, UniProt P81908). The data set can be described thus: biochemical. In kind it is biochemical. Conditions: for IC50: mean ± SEM, triplicate independent experiments.
The target of data set [3] is T2, electric eel AChE (eeAChE) (Electrophorus electricus, UniProt O42275).
T2 construct: purchased Sigma–Aldrich (Steinheim, Germany)
T2 sequence (O42275 24-633): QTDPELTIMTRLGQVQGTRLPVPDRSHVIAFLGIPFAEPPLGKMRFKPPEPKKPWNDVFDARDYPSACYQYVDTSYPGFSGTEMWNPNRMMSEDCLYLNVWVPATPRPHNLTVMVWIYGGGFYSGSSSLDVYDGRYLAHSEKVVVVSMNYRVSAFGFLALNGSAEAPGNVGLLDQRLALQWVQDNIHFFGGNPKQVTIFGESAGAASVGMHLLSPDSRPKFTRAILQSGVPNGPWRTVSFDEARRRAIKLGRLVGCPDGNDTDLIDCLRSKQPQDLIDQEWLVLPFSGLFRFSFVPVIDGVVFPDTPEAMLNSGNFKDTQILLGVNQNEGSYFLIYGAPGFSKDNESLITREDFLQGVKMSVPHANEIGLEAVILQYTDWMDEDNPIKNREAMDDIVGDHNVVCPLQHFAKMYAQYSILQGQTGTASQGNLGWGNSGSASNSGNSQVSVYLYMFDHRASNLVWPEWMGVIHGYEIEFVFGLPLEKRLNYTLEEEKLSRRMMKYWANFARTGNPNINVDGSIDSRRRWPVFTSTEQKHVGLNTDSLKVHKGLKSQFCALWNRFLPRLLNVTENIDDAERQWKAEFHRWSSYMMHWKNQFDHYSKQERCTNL
Description: biochemical. Conditions: for IC50: triplicate independent experiments.

Data set [4] concerns the target T3, human H3R (Homo sapiens, UniProt Q9Y5N1).
T3 construct: expressed in transfected cells; host or cells: HEK293

For data set [5], the target named is T3, human H3R. Description: [3H]Nα-methylhistamine radioligand binding assay in HEK293 cells stably expressing hH3R. On the procedure: Final compounds were tested for their H3R affinity in a radioligand binding assay using [^3H]N^α-methylhistamine as radioligand in HEK293 cells stably expressing hH3R [25]. […] Affinity to hH3R stably expressed in HEK293 cells was evaluated in a radioligand binding assay as described previously. […] The radioactivity was counted in a MicroBeta Trilux counter (PerkinElmer). Data were fitted to a one-site curve-fitting equation with Prism 6 (GraphPad Software, San Diego, CA, USA) and Ki values were calculated from IC50 values (from at least three experiments performed in duplicates) according to the Cheng−Prusoff equation [52].

The test system of another data set is human AChE. Conditions: cited from earlier work.
The subject of a further data set is human MAO B. The conditions noted are these: cited from earlier work.
Another data set addresses hH3R. The conditions noted are these: cited from earlier work.
The next data set deals with human BuChE. Conditions: cited from earlier work.
On the set-up of data set [6]: method as in PMID 32882609. Conditions: Figure 1; cited from earlier work.
Another data set relates to hepatoma HepG2 cells. Description: Hepatotoxicity, MTS viability of HepG2 cells. Conditions: 72 h incubation, MTS.
The next data set deals with equine BuChE. Also on record: method as in PMID 33991182, PMID 32882609, PMID 28832188, PMID 19222043, PMID 18396354. Conditions: Figure 2; read-out: equineBuChE IC50; cited from earlier work.
A further data set concerns electric eel AChE. Also on record: method as in PMID 33991182, PMID 32882609, PMID 28832188, PMID 19222043, PMID 18396354. Conditions: Figure 2; read-out: electric eelAChE IC50; cited from earlier work.
Data set [7] relates to SH-SY5Y neuroblastoma cells. The data set can be described thus: Neuroprotection against H2O2, MTS viability assay. In kind it is cell-based. The conditions noted are these: 50 µM, 300 µM H2O2, 24 h. On the technique in general: Formazan colour is commonly taken as a measure of viable cells.
Data set [8] deals with SH-SY5Y neuroblastoma cells. The data set can be described thus: Neuroprotection against H2O2, LDH necrosis assay. It counts as cell-based. The conditions noted are these: 50 µM, 300 µM H2O2, 24 h.
Where [9] appears, read: mean ± SEM, read-out: eeAChE IC50.
Where [10] appears, read: values marked *; mean [95% CI]; read-out: hH3R Ki; cited from earlier work.
Where [11] appears, read: read-out: hH3R Ki; values marked *; mean [95% CI]; cited from earlier work.
[12] abbreviates: Figure 2, read-out: humanH3R Ki.
Where [13] appears, read: Figure 2, read-out: humanAChE IC50.
[14] abbreviates: Figure 2, read-out: humanBuChE IC50.

This is an account of results in PMC9822066 (Molecules, 2022).

Where a name gives a salt, the structure may show the parent alone. Read-outs that look alike come from different tables or passages of the source. Bounds are passed on as bounds.

The term IC50 denotes the midpoint of a concentration-inhibition curve. By Ki is commonly meant a dissociation constant, usually derived from enzyme kinetics or from competition with a known ligand.

T3 sequence (Q9Y5N1 whole entry): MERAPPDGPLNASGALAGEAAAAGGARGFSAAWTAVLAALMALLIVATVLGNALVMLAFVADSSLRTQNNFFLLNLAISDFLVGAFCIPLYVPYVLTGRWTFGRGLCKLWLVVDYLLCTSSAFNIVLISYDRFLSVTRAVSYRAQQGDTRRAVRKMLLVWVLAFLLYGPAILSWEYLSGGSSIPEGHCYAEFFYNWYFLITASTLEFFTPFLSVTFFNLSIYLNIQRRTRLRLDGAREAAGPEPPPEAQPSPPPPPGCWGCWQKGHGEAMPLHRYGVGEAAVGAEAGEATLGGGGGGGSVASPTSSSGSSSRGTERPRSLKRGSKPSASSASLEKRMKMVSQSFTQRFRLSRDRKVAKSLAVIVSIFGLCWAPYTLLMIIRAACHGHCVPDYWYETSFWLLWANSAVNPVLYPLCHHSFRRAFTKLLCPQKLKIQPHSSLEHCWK
Sequence of BuChE from equine serum (eqBuChE) (P81908 whole entry): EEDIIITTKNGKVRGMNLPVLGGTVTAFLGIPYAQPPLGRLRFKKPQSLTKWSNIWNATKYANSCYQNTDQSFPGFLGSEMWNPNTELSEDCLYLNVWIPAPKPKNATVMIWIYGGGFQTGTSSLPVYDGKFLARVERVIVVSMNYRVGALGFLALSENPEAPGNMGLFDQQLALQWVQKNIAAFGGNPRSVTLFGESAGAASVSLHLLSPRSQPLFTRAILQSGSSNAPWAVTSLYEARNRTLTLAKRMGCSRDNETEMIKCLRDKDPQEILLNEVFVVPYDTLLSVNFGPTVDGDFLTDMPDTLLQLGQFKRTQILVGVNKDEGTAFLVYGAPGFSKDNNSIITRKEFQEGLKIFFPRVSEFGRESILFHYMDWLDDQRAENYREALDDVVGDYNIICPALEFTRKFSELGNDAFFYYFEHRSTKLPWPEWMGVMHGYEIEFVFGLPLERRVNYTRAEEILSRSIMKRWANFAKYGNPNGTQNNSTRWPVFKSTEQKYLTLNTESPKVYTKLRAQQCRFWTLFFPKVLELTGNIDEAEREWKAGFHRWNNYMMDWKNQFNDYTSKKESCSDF
Description for hepatoma HepG2 cells: Doxorubicin (DX) at the concentration of 1 μM was used as the reference cytostatic drug.
A multifunctional reader EnSpire (PerkinElmer, Waltham, MA, USA) was used to measure the absorbance.

Turning to `Cn1c(=O)c2c(ncn2C)n(C)c1=O` [Caffeine, reference compound], the “Pe ± SD” value in data set [1] was 15.1 ± 0.4 10^−6 cm/s.

As to `O=C(c1ccccc1)c1cccc(OCCCCCCN2CCCCC2)c1` [Compound 8, Phenyl (3-((6-(piperidin-1-yl)hexyl)oxy)phenyl)methanone hydrogen oxalate], on hMAO B, the inhibition at 1 µM was found to be 15%. For the same molecule, the figures for the IC50 in [2] and in [3] (setting [9]) were 2100 ± 60 nM and 3630 ± 111 nM, respectively. For the same molecule, the Ki on human H3R [4] (setting [10]) was 76 nM.

For `O=C(c1ccccc1)c1ccc(OCCCCCCN2CCCCC2)cc1` [Compound 9, Phenyl (4-((6-(piperidin-1-yl)hexyl)oxy)phenyl)methanone hydrogen oxalate], the inhibition at 1 µM on hMAO B turned out to be 9%. In addition, the IC50 in [2] turned out to be 1780 ± 34 nM; in data set [3] (setting [9]), 3730 ± 85 nM. Besides, the Ki on human H3R [4] (setting [10]) was 41 nM.

On to `CC1CCCN(CCCCCOc2ccc(C(=O)c3ccccc3)cc2)C1` (centres unmarked) [Compound 14, (4-((5-(3-Methylpiperidin-1-yl)pentyl)oxy)phenyl)(phenyl)methanone hydrogen oxalate], for which the inhibition at 1 µM at hMAO B turned out to be 9%. For the same molecule, the IC50 in data set [2] was 3780 ± 61 nM; in data set [3] (setting [9]), 3180 ± 83 nM. In addition, the Ki on human H3R [4] (setting [10]) was 40 nM.

As to `CC1CCCN(CCCCCCOc2cccc(C(=O)c3ccccc3)c2)C1` (centres unmarked) [Compound 18, (3-((6-(3-Methylpiperidin-1-yl)hexyl)oxy)phenyl)(phenyl)methanone hydrogen oxalate], the inhibition at 1 µM on hMAO B was 27%. In addition, the values for the IC50 in data set [2] and in data set [3] (setting [9]) were 2900 ± 77 nM and 2000 ± 30 nM, respectively. Besides, the Ki on human H3R [4] (setting [10]) was 110 nM.

In the case of `CC1CCCN(CCCCCCOc2ccc(C(=O)c3ccccc3)cc2)C1` (centres unmarked) [Compound 19, (4-((6-(3-Methylpiperidin-1-yl)hexyl)oxy)phenyl)(phenyl)methanone hydrogen oxalate], on hMAO B, the inhibition at 1 µM was 7%. Moreover, the IC50 is 1980 ± 34 nM in data set [2] and 2110 ± 50 nM in data set [3] (setting [9]). For the same molecule, the Ki at human H3R [4] (setting [10]) is 53 nM.

`O=C(c1ccccc1)c1ccc(OCCCCCN2CCCCCC2)cc1` [Compound 28, (4-((5-(Azepan-1-yl)pentyl)oxy)phenyl)(phenyl)methanone hydrogen oxalate]: the inhibition at 1 µM at hMAO B stood at 29%. In addition, the 50% inhibitory concentration (IC50) worked out at 678 ± 7 nM in data set [2] and 4630 ± 100 nM in data set [3] (eeAChE IC50, mean ± SEM). The Ki at human H3R [4] (setting [11]) was 39 nM.

`O=C(c1ccc(F)cc1)c1ccc(OCCCCCN2CCCCCC2)cc1` [Compound 30, (4-Fluorophenyl) (4-((5-(azepan-1-yl)pentyl)oxy)phenyl)methanone hydrogen oxalate] returned a Ki on human H3R [5] of 13 nM. For the same molecule, at hMAO B, the inhibition at 1 µM worked out at 30%. In addition, the IC50 in data set [2] was found to be 224 ± 3 nM; in [3] (setting [9]), 1110 ± 3 nM.

At human H3R [5], `O=C(O)C(=O)O.O=C(c1ccccc1)c1ccccc1OCCCCCCN1CCCCCC1` [Compound 31, (2-((6-(Azepan-1-yl)hexyl)oxy)phenyl)(phenyl)methanone hydrogen oxalate] returned a Ki of 162 nM. Also, the inhibition at 1 µM at hMAO B is 5%. In data set [2], the “selectivity eqBuChE versus eeAChE” value is “selective eqBuChE inhibitors” and 317 ± 3 nM corresponded to half-maximal inhibition (IC50). The inhibition at 10 µM in data set [3] (read-out: eeAChE % Inh. at 10 µM) was 11%.

With `O=C(c1ccccc1)c1cccc(OCCCCCCN2CCCCCC2)c1` [Compound 32, (3-((6-(Azepan-1-yl)hexyl)oxy)phenyl)(phenyl)methanone hydrogen oxalate], at hMAO B, the inhibition at 1 µM was found to be 17%. The figures for the IC50 in data set [2] and in data set [3] (setting [9]) were 616 ± 2 nM and 1550 ± 34 nM, respectively. Moreover, the Ki on human H3R [4] (setting [10]) is 70 nM.

As to `O=C(c1ccccc1)c1ccc(OCCCCCCN2CCCCCC2)cc1` [Compound 33, (4-((6-(Azepan-1-yl)hexyl)oxy)phenyl)(phenyl)methanone hydrogen oxalate], the inhibition at 1 µM on hMAO B was determined as 23%. Also, the IC50 was determined as 1280 ± 38 nM in data set [2] and 1810 ± 38 nM in data set [3] (setting [9]). Besides, the Ki at human H3R [4] (setting [11]) is 41 nM.

Turning to `O=C(c1ccc(Cl)cc1)c1ccc(OCCCCCCN2CCCCCC2)cc1` [Compound 34, (4-Chlorophenyl)(4-((6-(azepan-1-yl)hexyl)oxy)phenyl)methanone hydrogen oxalate], the affinity at human H3R [5], expressed as Ki, was 133 nM. For the same molecule, at hMAO B, the inhibition at 1 µM is 30%. Besides, the IC50 in data set [2] was 867 ± 2 nM; in [3] (setting [9]), 2033 ± 18 nM.

On human H3R [5], `O=C(c1ccc(F)cc1)c1ccc(OCCCCCCN2CCCCCC2)cc1` [Compound 35, (4-((6-(Azepan-1-yl)hexyl)oxy)phenyl)(4-fluorophenyl)methanone hydrogen oxalate] registered a Ki of 35 nM. Also, at hMAO B, the inhibition at 1 µM worked out at 24%. The IC50 in data set [2] turned out to be 161 ± 4 nM; in [3] (setting [9]), 1654 ± 4 nM.

`O=c1c2ccccc2oc2ccc(OCCCCCN3CCCCCC3)cc12` [Compound I]: the IC50 with human AChE (Figure 1, read-out: hAChEI IC50) was 390 nM; in the data set with human MAO B (Figure 1, read-out: hMAO B IC50), 780 nM; with human BuChE (Figure 1, read-out: hBuChE IC50), 1280 nM. Moreover, the Ki on hH3R (Figure 1, read-out: hH3R Ki) is 170 nM. Moreover, in data set [6], the in vivo activity result is “significant memory-enhancing effect”.

In the case of `COc1cccc2c1C(=O)c1c(O)c3c(c(O)c1C2=O)C[C@@](O)(C(=O)CO)C[C@@H]3O[C@H]1C[C@H](N)[C@H](O)[C@H](C)O1` [Doxorubicin, reference compound], the “concentration decreasing HepG2 cell viability” value in the data set with hepatoma HepG2 cells is at most 1000 nM.

Turning to `CCN(CC)Cc1cc2c(=O)c3c(O)cccc3oc2cc1OCC=C(C)C` [compound III], the IC50 in the data set on equine BuChE was 510 nM; in the data set on electric eel AChE, 2600 nM.

`O=c1c2ccccc2oc2ccc(OCCCCCCN3CCCCCC3)cc12` [compound II]: the IC50 was 390 nM in the data set on human MAO B (Figure 2, read-out: humanMAOB IC50); 610 nM in the data set on equine BuChE; 310 nM in the data set on electric eel AChE. The Ki at hH3R (setting [12]) is 500 nM.

As for `c1cc2c(cc1OCCCCCCN1CCCCC1)CN1CCCC1=N2` [compound IV], the IC50 was 39.1 nM in the data set with human AChE (setting [13]) and 1300 nM with equine BuChE. Besides, the inhibitory constant (Ki) at hH3R (setting [12]) was 110 nM.

Take `COc1ccc(C(=O)c2cccc(CN(C)Cc3ccccc3)c2)cc1OC` [compound V]: the results for the IC50 with human AChE (setting [13]) and with human BuChE (setting [14]) were 460 nM and 60700 nM, respectively.

For `C[C@@H]1NCCc2cc(O)c(O)cc21` [salsolinol, reference compound], the “effect on viability (MTS test)” value in data set [7] is on record as “statistically significantly increased the number of living cells”. The “effect on necrosis (LDH test)” value in data set [8] is “lowered the number of necrotic cells to the control level”.

For xanthostigmine, the results for the IC50 in the data set with human AChE (setting [13]) and in the data set on human BuChE (setting [14]) were 0.3 nM and 48 nM, respectively.
